Results on 30 compounds are retold here after patent US10280159B2 (AbbVie Deutschland GmbH & Co. KG, priority 2015, dated 2019).

Structures are written as SMILES.

Holding throughout (format): cell-based
One experiment has as its target T1, human S1PR5 (Homo sapiens, UniProt Q9H228).
T1 construct: host or cells: CHO-K1
As to the kind of experiment: Intracellular Ca2+ release (FLIPR) agonist potency, S1P5. Particulars: recombinant CHO-K1 cells expressing human S1PR5, aequorin, Gq/i5; Calcium 5 FLIPR; read-out: S1P5 EC50 range. The procedure, abridged: (§1)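 EC50 values reflect nonlinear fits of FLIPR fluorescence data, normalized to the phospho-fingolimod curve. Cells were CHO-K1 expressing the human receptor, aequorin and Gq/i5, cultured in F-12 Ham with 10% FBS.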

Another experiment addresses T2, human S1PR1 (Homo sapiens, UniProt P21453).
T2 construct: host or cells: CHO-K1
In words: Intracellular Ca2+ release (FLIPR) agonist potency, S1P1. Particulars: recombinant CHO-K1 cells expressing human S1PR1, aequorin, Gq/i5; Calcium 5 FLIPR; read-out: S1P1 EC50. The procedure, abridged:
as §1

The next experiment addresses T3, human S1PR4 (Homo sapiens, UniProt O95977).
T3 construct: host or cells: CHO-K1
T3 sequence (O95977 1-384): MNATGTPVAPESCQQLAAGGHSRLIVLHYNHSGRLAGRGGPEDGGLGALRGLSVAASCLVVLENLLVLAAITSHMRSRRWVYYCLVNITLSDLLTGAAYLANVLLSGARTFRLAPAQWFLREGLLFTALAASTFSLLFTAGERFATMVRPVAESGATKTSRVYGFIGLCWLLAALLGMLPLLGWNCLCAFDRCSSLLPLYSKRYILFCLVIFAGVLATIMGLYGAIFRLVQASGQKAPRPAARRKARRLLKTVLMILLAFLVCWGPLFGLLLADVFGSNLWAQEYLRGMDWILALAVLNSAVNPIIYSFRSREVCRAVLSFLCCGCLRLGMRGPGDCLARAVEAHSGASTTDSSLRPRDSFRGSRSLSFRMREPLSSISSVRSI
As to the kind of experiment: Intracellular Ca2+ release (FLIPR) agonist potency, S1P4. Particulars: recombinant CHO-K1 cells expressing human S1PR4, aequorin, Gq/i5; Calcium 5 FLIPR; read-out: S1P4 EC50. The method, boiled down: as §1

T2 sequence (P21453 whole entry): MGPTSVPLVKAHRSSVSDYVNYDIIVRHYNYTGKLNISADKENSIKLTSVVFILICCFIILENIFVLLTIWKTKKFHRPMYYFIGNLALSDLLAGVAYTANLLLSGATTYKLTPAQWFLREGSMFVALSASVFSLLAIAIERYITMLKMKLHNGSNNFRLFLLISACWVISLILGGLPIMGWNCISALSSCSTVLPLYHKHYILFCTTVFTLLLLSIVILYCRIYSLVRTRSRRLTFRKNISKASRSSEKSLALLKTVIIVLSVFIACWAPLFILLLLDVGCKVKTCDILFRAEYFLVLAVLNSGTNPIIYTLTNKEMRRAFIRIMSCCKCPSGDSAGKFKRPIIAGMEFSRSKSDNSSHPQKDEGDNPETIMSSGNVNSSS
T1 sequence (Q9H228 whole entry): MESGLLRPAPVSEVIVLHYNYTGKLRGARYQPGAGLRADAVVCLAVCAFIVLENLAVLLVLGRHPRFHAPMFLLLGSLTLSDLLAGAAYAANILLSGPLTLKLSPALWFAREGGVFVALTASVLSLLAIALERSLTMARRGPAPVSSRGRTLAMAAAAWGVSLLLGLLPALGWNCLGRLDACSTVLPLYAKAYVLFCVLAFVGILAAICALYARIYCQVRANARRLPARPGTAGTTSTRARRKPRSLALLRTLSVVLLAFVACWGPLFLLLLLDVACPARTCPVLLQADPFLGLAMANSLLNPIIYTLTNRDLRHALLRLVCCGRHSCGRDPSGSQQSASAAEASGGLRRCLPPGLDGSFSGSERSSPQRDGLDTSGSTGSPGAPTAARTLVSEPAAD

Take `COc1cccc(F)c1COc1ccc2c(c1)CCC(OCC(=O)O)C2` (stereo not drawn) [Compound 157, 2-[6-[(2-fluoro-6-methoxy-phenyl)methoxy]tetralin-2-yl]oxyacetic acid]: the values for the EC50 at human S1PR5, at human S1PR1 and on human S1PR4 were 1000 to 10000 nM, greater than 1000 nM and greater than 1000 nM, respectively.

For the compound `O=C(O)COC1CCc2cc(OCc3c(F)cccc3C(F)(F)F)ccc2C1` (stereo not drawn) [Compound 158, 2-[6-[[2-fluoro-6-(trifluoromethyl)phenyl]methoxy]tetralin-2-yl]oxyacetic acid], the EC50 at human S1PR5 was 1000 to 10000 nM; at human S1PR1, greater than 1000 nM; at human S1PR4 it was greater than 1000 nM.

As for `O=C(O)COC1CCc2cc(OCc3c(F)cccc3F)ccc2C1` (stereo not drawn) [Compound 159, 2-[6-[(2,6-difluorophenyl)methoxy]tetralin-2-yl]oxyacetic acid], the figures for the concentration for a half-maximal effect (EC50) at human S1PR5, on human S1PR1 and at human S1PR4 were 1000 to 10000 nM, greater than 1000 nM and greater than 1000 nM, respectively.

For `Cc1ccc(F)c(COc2ccc3c(c2)CCC(OCC(=O)O)C3)c1` (stereo not drawn) [Compound 160, 2-[6-[(2-fluoro-5-methyl-phenyl)methoxy]tetralin-2-yl]oxyacetic acid], the EC50 was 100 to 1000 nM on human S1PR5, greater than 1000 nM at human S1PR1 and greater than 1000 nM on human S1PR4.

With `O=C(O)COC1CCc2cc(OCc3ccc(Cl)cc3Cl)ccc2C1` (stereo not drawn) [Compound 162, 2-[6-[(2,4-dichlorophenyl)methoxy]tetralin-2-yl]oxyacetic acid], the concentration giving a half-maximal response (EC50) at human S1PR5 was 1000 to 10000 nM; on human S1PR1, greater than 1000 nM; at human S1PR4, greater than 1000 nM.

On to `O=C(O)COC1CCc2cc(OCc3cc(F)ccc3F)ccc2C1` (stereo not drawn) [Compound 163, 2-[6-[(2,5-difluorophenyl)methoxy]tetralin-2-yl]oxyacetic acid], for which the 50% effective concentration (EC50) at human S1PR5 was 100 to 1000 nM; at human S1PR1 it was greater than 1000 nM; at human S1PR4, greater than 1000 nM.

Take `O=C(O)COC1CCc2cc(OCc3cc(Cl)ccc3Cl)ccc2C1` (stereo not drawn) [Compound 164, 2-[6-[(2,5-dichlorophenyl)methoxy]tetralin-2-yl]oxyacetic acid]: the EC50 was 1000 to 10000 nM on human S1PR5, greater than 1000 nM on human S1PR1 and greater than 1000 nM on human S1PR4.

Consider `COc1ccc(COc2ccc3c(c2)CCC(OCC(=O)O)C3)cc1` (stereo not drawn) [Compound 165, 2-[6-[(4-methoxyphenyl)methoxy]tetralin-2-yl]oxyacetic acid], for which the EC50 on human S1PR5 is 1000 to 10000 nM; at human S1PR1, greater than 1000 nM; on human S1PR4, greater than 1000 nM.

Turning to `COc1ccc(F)cc1COc1ccc2c(c1)CCC(OCC(=O)O)C2` (stereo not drawn) [Compound 166, 2-[6-[(5-fluoro-2-methoxy-phenyl)methoxy]tetralin-2-yl]oxyacetic acid], the EC50 is 100 to 1000 nM at human S1PR5, greater than 1000 nM at human S1PR1 and greater than 1000 nM on human S1PR4.

Regarding `O=C(O)COC1CCc2cc(OCc3c(F)cccc3Cl)ccc2C1` (stereo not drawn) [Compound 169, 2-[6-[(2-chloro-6-fluoro-phenyl)methoxy]tetralin-2-yl]oxyacetic acid], the EC50 at human S1PR5 was 100 to 1000 nM; on human S1PR1, greater than 1000 nM; at human S1PR4 it was greater than 1000 nM.

On to `COc1ccccc1COc1ccc2c(c1)CCC(OCC(=O)O)C2` (stereo not drawn) [Compound 170, 2-[6-[(2-methoxyphenyl)methoxy]tetralin-2-yl]oxyacetic acid], for which the half-maximal effective concentration (EC50) at human S1PR5 is 1000 to 10000 nM; at human S1PR1, greater than 1000 nM; on human S1PR4, greater than 1000 nM.

Take `O=C(O)COC1CCc2cc(OCc3cc(F)ccc3Cl)ccc2C1` (stereo not drawn) [Compound 171, 2-[6-[(2-chloro-5-fluoro-phenyl)methoxy]tetralin-2-yl]oxyacetic acid]: the results for the concentration for a half-maximal effect (EC50) at human S1PR5, at human S1PR1 and at human S1PR4 were 1000 to 10000 nM, greater than 1000 nM and greater than 1000 nM, respectively.

As for `O=C(O)COC1CCc2cc(OCc3cc(C(F)(F)F)ccc3F)ccc2C1` (stereo not drawn) [Compound 172, 2-[6-[[2-fluoro-5-(trifluoromethyl)phenyl]methoxy]tetralin-2-yl]oxyacetic acid], the results for the EC50 at human S1PR5, on human S1PR1 and on human S1PR4 were 1000 to 10000 nM, greater than 1000 nM and greater than 1000 nM, respectively.

`O=C(O)COC1CCc2cc(OCc3cc(Cl)ccc3F)ccc2C1` (stereo not drawn) [Compound 174, 2-[6-[(5-chloro-2-fluoro-phenyl)methoxy]tetralin-2-yl]oxyacetic acid]: the EC50 at human S1PR5 was 1000 to 10000 nM; at human S1PR1 it was greater than 1000 nM; on human S1PR4, greater than 1000 nM.

Consider `COc1ccc(Cl)cc1COc1ccc2c(c1)CCC(OCC(=O)O)C2` (stereo not drawn) [Compound 176, 2-[6-[(5-chloro-2-methoxy-phenyl)methoxy]tetralin-2-yl]oxyacetic acid], for which the EC50 on human S1PR5 was 1000 to 10000 nM; on human S1PR1, greater than 1000 nM; on human S1PR4 it was greater than 1000 nM.

Take `Cc1ccccc1COc1ccc2c(c1)CCC(OCCC(=O)O)C2` (stereo not drawn) [Compound 179, 3-[6-(o-tolylmethoxy)tetralin-2-yl]oxypropanoic acid]: the concentration for a half-maximal effect (EC50) is 1000 to 10000 nM on human S1PR5, greater than 1000 nM at human S1PR1 and greater than 1000 nM on human S1PR4.

For the compound `O=C(O)CCOC1CCc2cc(OCc3cccc(F)c3)ccc2C1` (stereo not drawn) [Compound 180, 3-[6-[(3-fluorophenyl)methoxy]tetralin-2-yl]oxypropanoic acid], the EC50 on human S1PR5 was 1000 to 10000 nM; on human S1PR1, greater than 1000 nM; on human S1PR4, greater than 1000 nM.

As for `O=C(O)CCOC1CCc2cc(OCc3ccc(Cl)c(Cl)c3)ccc2C1` (stereo not drawn) [Compound 181, 3-[6-[(3,4-dichlorophenyl)methoxy]tetralin-2-yl]oxypropanoic acid], the half-maximal effective concentration (EC50) on human S1PR5 is 1000 to 10000 nM; at human S1PR1, greater than 1000 nM; at human S1PR4, greater than 1000 nM.

In the case of `CSc1ccc(COc2ccc3c(c2)CCC(OCCC(=O)O)C3)cc1` (stereo not drawn) [Compound 182, 3-[6-[(4-methylsulfanylphenyl)methoxy]tetralin-2-yl]oxypropanoic acid], the EC50 was 1000 to 10000 nM at human S1PR5, greater than 1000 nM at human S1PR1 and greater than 1000 nM on human S1PR4.

For the compound `O=C(O)CCOC1CCc2cc(OCc3ccc(C(F)(F)F)cc3)ccc2C1` (stereo not drawn) [Compound 183, 3-[6-[[4-(trifluoromethyl)phenyl]methoxy]tetralin-2-yl]oxypropanoic acid], the EC50 at human S1PR5 is 1000 to 10000 nM; at human S1PR1, greater than 1000 nM; on human S1PR4 it was greater than 1000 nM.

As for `O=C(O)CCOC1CCc2cc(OCc3cccc(OC(F)(F)F)c3)ccc2C1` (stereo not drawn) [Compound 184, 3-[6-[[3-(trifluoromethoxy)phenyl]methoxy]tetralin-2-yl]oxypropanoic acid], the half-maximal effective concentration (EC50) at human S1PR5 was 1000 to 10000 nM; on human S1PR1 it was greater than 1000 nM; at human S1PR4, greater than 1000 nM.

Turning to `O=C(O)CCOC1CCc2cc(OCc3ccc(OC(F)(F)F)cc3)ccc2C1` (stereo not drawn) [Compound 185, 3-[6-[[4-(trifluoromethoxy)phenyl]methoxy]tetralin-2-yl]oxypropanoic acid], the EC50 was 1000 to 10000 nM on human S1PR5, greater than 1000 nM on human S1PR1 and greater than 1000 nM at human S1PR4.

As to `O=C(O)CCOC1CCc2cc(OCc3cccc(F)c3F)ccc2C1` (stereo not drawn) [Compound 186, 3-[6-[(2,3-difluorophenyl)methoxy]tetralin-2-yl]oxypropanoic acid], the concentration for a half-maximal effect (EC50) at human S1PR5 is 1000 to 10000 nM; at human S1PR1 it was greater than 1000 nM; at human S1PR4, greater than 1000 nM.

For the compound `O=C(O)CCOC1CCc2cc(OCc3ccccc3Cl)ccc2C1` (stereo not drawn) [Compound 188, 3-[6-[(2-chlorophenyl)methoxy]tetralin-2-yl]oxypropanoic acid], the EC50 is 1000 to 10000 nM at human S1PR5, greater than 1000 nM at human S1PR1 and greater than 1000 nM at human S1PR4.

With `O=C(O)CCOC1CCc2cc(OCc3cccc(Cl)c3Cl)ccc2C1` (stereo not drawn) [Compound 189, 3-[6-[(2,3-dichlorophenyl)methoxy]tetralin-2-yl]oxypropanoic acid], the EC50 on human S1PR5 was 1000 to 10000 nM; on human S1PR1, greater than 1000 nM; on human S1PR4 it was greater than 1000 nM.

In the case of `O=C(O)CCOC1CCc2cc(OCc3ccccc3OC(F)(F)F)ccc2C1` (stereo not drawn) [Compound 190, 3-[6-[[2-(trifluoromethoxy)phenyl]methoxy]tetralin-2-yl]oxypropanoic acid], the 50% effective concentration (EC50) is 1000 to 10000 nM on human S1PR5, greater than 1000 nM at human S1PR1 and greater than 1000 nM at human S1PR4.

`O=C(O)CCOC1CCc2cc(OCc3ccc(Cl)cc3)ccc2C1` (stereo not drawn) [Compound 191, 3-[6-[(4-chlorophenyl)methoxy]tetralin-2-yl]oxypropanoic acid]: the EC50 is 1000 to 10000 nM on human S1PR5, greater than 1000 nM at human S1PR1 and greater than 1000 nM at human S1PR4.

Consider `CC(C)(C)c1ccc(COc2ccc3c(c2)CCC(OCCC(=O)O)C3)cc1` (stereo not drawn) [Compound 192, 3-[6-[(4-tert-butylphenyl)methoxy]tetralin-2-yl]oxypropanoic acid], for which the EC50 at human S1PR5 is 1000 to 10000 nM; at human S1PR1, greater than 1000 nM; at human S1PR4 it was greater than 1000 nM.

For the compound `O=C(O)CCOC1CCc2cc(OCc3ccc(F)cc3)ccc2C1` (stereo not drawn) [Compound 194, 3-[6-[(4-fluorophenyl)methoxy]tetralin-2-yl]oxypropanoic acid], the EC50 at human S1PR5 was 1000 to 10000 nM; on human S1PR1 it was greater than 1000 nM; on human S1PR4 it was greater than 1000 nM.

As to `Cc1ccc(C(F)(F)F)c(COc2ccc3c(c2)CCC(OCC(=O)O)C3)c1` (stereo not drawn) [Compound 195, 2-[6-[[5-methyl-2-(trifluoromethyl)phenyl]methoxy]tetralin-2-yl]oxyacetic acid], the concentration for a half-maximal effect (EC50) is 1000 to 10000 nM at human S1PR5, greater than 1000 nM at human S1PR1 and greater than 1000 nM at human S1PR4.
